Test results taken from patent US9642839B2, “Substance having tyrosine kinase inhibitory activity and preparation method and use thereof” (Institute of Radiation Medicine, China Academy of Military …, priority 2013, dated 2017).

Columns and labels:
[1] = system: non-small cell lung cancer (NSCLC); conditions: 250 mg/day tablet, NSCLC patients with previous chemotherapy, 159 subjects; cited from earlier work
[2] = system: protein tyrosine kinase (PTK); assay: PTK activity assay with mouse brain tissue extract (ELISA, OD 492 nm); format: biochemical; conditions: at 400 μM
Experimental: Tyrosine kinase buffer: 10 mL 1M HEPES (pH 7.5), 0.4 mL 5% BSA/PBS, 0.2 mL 0.1M Na3VO4, and 1 mL 5M NaCl were added to 88.4 mL double distilled water (DDW) (HEPES: Amresco; Na3VO4: Sigma).
Extraction of tissue extract PTK: mouse brain tissue was quickly removed and weighed, followed by addition of five-fold volumes of pre-cooled homogenization buffer for homogenization. After centrifugation at 4° C., 1,000 g for 10 min, nuclei and cell debris were removed. The supernatant S1 was collected and centrifuged at 4° C., 10,000 g for 20 min, and then the supernatant S2 was collected. The precipitate P2, which represents the crude membrane protein fraction, was retained. S2 included cytoplasmic protein, and was used for testing protein tyrosine kinase (PTK) activity. In the detection of the membrane protein fraction, two-fold volumes of lysis buffer was added to P2, and the resultant was placed on ice for 10 min and centrifuged at 4° C., 10,000 g for 10 min. The supernatant S3, which represents the crude membrane protein including soluble membrane protein, was collected for testing PTK activity. Protein content in cytoplasm or membrane protein was detected by using BCA protein concentration kit (purchased from Beyotime Institute of Biotechnology). The tissue extract was stored at −70° C.
Coating of 96-well plate: PTK substrate was dissolved and added in an amount of 100 μl to each well. The plate was covered with its lid, and incubated at 4° C. overnight (10-12 hours). Then it was washed with 200 μl elution buffer once, and dried at 37° C. for 2 h. After that, it was washed with 10 mM PBS once, dried at room temperature, and then stored at 4° C. for further use.
Groups: blank control: 80 μl 1× tyrosine kinase buffer containing ATP+20 μl 1× tyrosine kinase buffer; negative control: 80 μl 1× tyrosine kinase buffer containing ATP+10 μl 1× tyrosine kinase buffer+7 μl tissue extract+3 μl 1× tyrosine kinase buffer; positive control: 80 μl 1× tyrosine kinase buffer containing ATP+10 μl Gefitinib+7 μl tissue extract+3 μl 1× tyrosine kinase buffer (first, the positive drug was allowed to interact with the tyrosine kinase tissue extract at room temperature for 10 min, and meanwhile the tissue extract for the negative control group was also placed at room temperature for 10 min, and then 80 μl 1× tyrosine kinase buffer containing ATP was added to respective groups); vehicle control: 80 μl 1× tyrosine kinase buffer containing ATP+10 μl DMSO+7 μl tissue extract+3 μl 1× tyrosine kinase buffer; drugs to be screened: 80 μl 1× tyrosine kinase buffer containing ATP+10 μl drug to be tested +7 μl tissue extract+3 μl 1× tyrosine kinase buffer.
PTK activity assay: 1× tyrosine kinase buffer was prepared by evenly mixing 1 mL (10×) tyrosine kinase buffer with 9 mL DDW. The tissue extract was diluted with 1× tyrosine kinase buffer appropriately, mixed with it gently and evenly, and placed on ice. ATP stock solution was dissolved by evenly mixing 48 μl ATP stock solution with 1 mL 1× tyrosine kinase buffer, and placed on ice. The microplate reader was added in respective wells with the groups formulated as above, covered with the lid, and incubated at room temperature for 30 min. The microplate reader was washed with 200 μl elution buffer and tapped until the residual buffer was removed, and this procedure was repeated for five times. To each well, 100 μl antibody diluent (antibody elution buffer diluted at a ratio of 1:2000) was added. The reader was covered with the lid, and incubated at room temperature for 30 min. OPD solution was prepared by addition of 4 mg OPD into a mixture of 4.86 mL 0.1 mol/L citric acid solution and 5.14 mL 0.2 mol/L Na2HPO4 solution, followed by addition of 50 μl 30% H2O2 to allow for complete dissolution, and then was protected from light. The antibody solution was removed. The reader was washed with 200 μl elution buffer and tapped until the residual buffer was removed, and this procedure was repeated for five times.

A375 cells = assay: In vitro antitumor activity, MTS cell proliferation; format: cell-based; conditions: A375, skin cancer, 72 hours
Experimental: (§1) Method: 14 cell lines (MKN-45 cells, MHCC97-L cells, MHCC97-H cells, HLE cells, HepG2 cells, 7721 cells, L02 cells, A375 cells, H460 cells, A549 cells, SK-N-SH cells, MCF-7 cells, K562 cells, and Ba/F3-Tpr-Met cells (pre-B cells which are malignantly transformed by the c-Met constitutive active mutant Tpr-Met) were seeded into 96-well plate at 1×10^4 cells/well, and each well was added with 150 μl DMEM medium (purchased from Invitrogen) containing 10% fetal bovine serum (purchased from Hyclone). When cell adherent was observed, different concentrations of 2-indolone derivatives (concentrations at 0.1-10 μM) were added, in addition to the negative control (vehicle control group) and blank control (medium group). After culture at 37° C., 5% CO2 for 72 hours, MTS reagent (Promega Corporation) were added for further culture for 2-4 h.

Ba/F3-Tpr-Met cells = assay: as above; format: cell-based; conditions: pre-B cell, 72 hours
Experimental: as §1

H460 cells = assay: as above; format: cell-based; conditions: H460, lung cancer, 72 hours
Experimental: as §1

HLE cells = assay: as above; format: cell-based; conditions: hepatocellular cancer, 72 hours
Experimental: as §1

HepG2 cells = assay: as above; format: cell-based; conditions: HepG2, hepatocellular cancer, 72 hours
Experimental: as §1

K562 cells = assay: as above; format: cell-based; conditions: K562, leukemia, 72 hours
Experimental: as §1

MCF-7 cells = assay: as above; format: cell-based; conditions: MCF-7, breast cancer, 72 hours
Experimental: as §1

MHCC97-L cells = assay: as above; format: cell-based; conditions: hepatocellular cancer, 72 hours
Experimental: as §1

MKN-45 cells = assay: as above; format: cell-based; conditions: MKN-45, gastric cancer, 72 hours
Experimental: as §1

SK-N-SH cells = assay: as above; format: cell-based; conditions: neuroblastoma, 72 hours
Experimental: as §1

A549 cells = assay: as above; format: cell-based, human; conditions: A549, lung cancer, 72 hours
Experimental: as §1

MHCC97-H cells = assay: as above; format: cell-based, human; conditions: hepatocellular cancer, 72 hours
Experimental: as §1

L02 cells = assay: MTS cell proliferation, normal liver cells; format: cell-based; conditions: L02, normal hepatic cells, 72 hours
Experimental: […] After culture at 37° C., 5% CO2 for 72 hours, MTS reagent (Promega Corporation) were added for further culture for 2-4 h.

| Inhibition rate on tyrosine kinase [2] | IC50 (A375 cells) | IC50 (Ba/F3-Tpr-Met cells) | IC50 (H460 cells) | IC50 (HLE cells) | IC50 (HepG2 cells) | IC50 (K562 cells) | IC50 (MCF-7 cells) | IC50 (MHCC97-L cells) | IC50 (MKN-45 cells) | IC50 (SK-N-SH cells) | IC50 (A549 cells) | IC50 (MHCC97-H cells) | SMILES | Objective response rate [1] | IC50 (L02 cells) |
| --- | --- | --- | --- | --- | --- | --- | --- | --- | --- | --- | --- | --- | --- | --- | --- |
| 55.0% | 1650 nM | 4.21 µM | 940 nM | 4.87 µM | 5.18 µM | 2210 nM | 1120 nM | 1060 nM | 1380 nM | 1060 nM | 1990 nM | 910 nM | O=C1Nc2ccc(S(=O)(=O)Nc3ccc(Cl)cc3)cc2C1=Cc1nc2ccccc2[nH]1 [Indo 6, 3-(1H-benzimidazol-2-methylene)-5-(4-chlorophenylaminosulfo)-2-indolone] | – | 22.7 µM |
| 49.9% | 2350 nM | 5.68 µM | 1630 nM | 6.58 µM | 6.74 µM | 3110 nM | 1810 nM | 1680 nM | 2020 nM | 1570 nM | 3020 nM | 1530 nM | Cc1ccc(NS(=O)(=O)c2ccc3c(c2)C(=Cc2nc4ccccc4[nH]2)C(=O)N3)cc1 [Indo 8, 3-(1H-benzimidazol-2-methylene)-5-(4-methylphenylaminosulfo)-2-indolone] | – | 25.3 µM |
| 51.3% | 2120 nM | 4.91 µM | 1250 nM | 5.91 µM | 5.98 µM | 2640 nM | 1350 nM | 1310 nM | 1720 nM | 1220 nM | 2520 nM | 1170 nM | CCOc1ccc(NS(=O)(=O)c2ccc3c(c2)C(=Cc2nc4ccccc4[nH]2)C(=O)N3)cc1 [Indo 9, 3-(1H-benzimidazol-2-methylene)-5-(4-ethoxyphenylaminosulfo)-2-indolone] | – | 23.2 µM |

The remaining lines, values behind:

| SMILES | Inhibition rate on tyrosine kinase [2] | IC50 (A375 cells) | IC50 (Ba/F3-Tpr-Met cells) | IC50 (H460 cells) | IC50 (HLE cells) | IC50 (HepG2 cells) | IC50 (K562 cells) | IC50 (MCF-7 cells) | IC50 (MHCC97-L cells) | IC50 (MKN-45 cells) | IC50 (SK-N-SH cells) | IC50 (A549 cells) | IC50 (MHCC97-H cells) | Objective response rate [1] | IC50 (L02 cells) |
| --- | --- | --- | --- | --- | --- | --- | --- | --- | --- | --- | --- | --- | --- | --- | --- |
| COc1cc2ncnc(Nc3ccc(F)c(Cl)c3)c2cc1OCCCN1CCOCC1 [Gefitinib] | – | – | – | – | – | – | – | – | – | – | – | – | – | 27.0% | – |
| O=C1Nc2ccc(S(=O)(=O)Nc3ccc4ccccc4c3)cc2C1=Cc1nc2ccccc2[nH]1 [Indo 1, 3-(1H-benzimidazol-2-methylene)-5-(β-naphthylaminosulfo)-2-indolone] | 51.2% | 3180 nM | 5.31 µM | 1540 nM | 6.31 µM | 6.47 µM | 3020 nM | 1720 nM | 1540 nM | 1970 nM | 1350 nM | 2890 nM | 1380 nM | – | 24.8 µM |
| O=C1Nc2ccc(S(=O)(=O)Nc3ccc(F)c(Cl)c3)cc2C1=Cc1nc2ccccc2[nH]1 [Indo 2, 3-(1H-benzimidazol-2-methylene)-5-(3-chloro-4-fluorophenylaminosulfo)-2-indolone] | 45.2% | 2480 nM | 5.93 µM | 1780 nM | 6.79 µM | 6.98 µM | 3270 nM | 1950 nM | 1870 nM | 2130 nM | 1790 nM | 3160 nM | 1670 nM | – | 23.7 µM |
| CN(c1ccccc1)S(=O)(=O)c1ccc2c(c1)C(=Cc1nc3ccccc3[nH]1)C(=O)N2 [Indo 3, 3-(1H-benzimidazol-2-methylene)-5-(N-methylphenylaminosulfo)-2-indolone] | 55.9% | 1470 nM | 3.87 µM | 1050 nM | 4.72 µM | 4.79 µM | 2070 nM | 960 nM | 1110 nM | 1290 nM | 850 nM | 1540 nM | 820 nM | – | 22.2 µM |
| O=C1Nc2ccc(S(=O)(=O)NC3CCCCC3)cc2C1=Cc1nc2ccccc2[nH]1 [Indo 4, 3-(1H-benzimidazol-2-methylene)-5-(cyclohexylaminosulfo)-2-indolone] | 60.7% | 970 nM | 2.54 µM | 780 nM | 3.58 µM | 3.69 µM | 1340 nM | 1460 nM | 640 nM | 940 nM | 540 nM | 2320 nM | 540 nM | – | 26.8 µM |
| O=C1Nc2ccc(S(=O)(=O)Nc3ccc(CCO)cc3)cc2C1=Cc1nc2ccccc2[nH]1 [Indo 7, 3-(1H-benzimidazol-2-methylene)-5-(4-hydroxyethylphenylaminosulfo)-2-indolone] | 58.2% | 1220 nM | 3.11 µM | 920 nM | 4.36 µM | 4.25 µM | 1670 nM | 830 nM | 970 nM | 1130 nM | 670 nM | 1280 nM | 690 nM | – | 25.7 µM |
